Reference: patent US4596806A, “7-piperidino-1,2,3,5-tetrahydroimidazo[2,1-b]-quinazolin-2-one having platelet aggregation inhibitory activity” (Daiichi Seiyaku Co., Ltd., priority 1983, dated 1986)
Where two headings read alike, the source gives them in different places.

Key:
[1] = LD50 (probit method), rat; conditions: in vivo, iv
[2] = test system: platelet aggregation; assay: Test of Platelet Aggregation Inhibition (in vitro), rat PRP; type: cell-based, rat (Wistar Imamichi); conditions: rat blood, read-out: Platelet Aggregation Inhibitory Activity (in vitro: IC50)
Protocol: The test was performed as follows in accordance with the method of Ashida et al, Thrombosis and Haemostasis, Vol. 40, p542 (1979).
Blood was taken by puncture from the heart of a Wistar Imamichi rat under anesthesia with pentobarbital into a syringe containing 1/10 volume of a 3.13% aqueous solution of sodium citrate dihydrate, and the citrated blood was centrifuged to obtain a platelet-rich-plasma (PRP). In the same manner, citrated blood was collected from the vein of a healthy human who had not taken aspirin or any other anti-inflammatory agent since before 10 days, followed by centrifugation to obtain PRP. 0.005 ml of each test compound was added to 0.445 ml each of these PRP samples, and the system was warmed at 30° C. for 1 minute. 0.05 ml of an aggregation inducer (ADP or collagen) was then added thereto, and platelet aggregation was determined according to the method of Born, Nature, Vol. 194, p927 (1962). The inhibitory activity of platelet aggregation was expressed in terms of 50% inhibition concentration, and the results obtained are shown in Table 2.

[3] = test system: pancreatic juice secretion; assay: Test of Stimulation on Pancreatic Juice Secretion in Dog; type: in vivo, dog (adult mongrel); conditions: for total output amount of bicarbonate ions as compared with the control: 30 minutes after administration; for Pancreatic Juice Secretion, Total: total 0-60 min; for total volume of pancreatic juice as compared with the control (100%): total after 60 minutes
Protocol: Adult mongrel dogs (male and female) having a body weight of 11.8 to 15.8 Kg were anesthetized with Nembutal and Phenobal and a cannula was inserted into pancreatic duct. A solution of Compound (I) dissolved in a physiological saline solution was administered intravenously from femoral vein at a dose of 0.5 ml/Kg. The volume of pancreatic juice was determined in a polyethylene tube connected to the cannula, and the bicarbonate ion concentration in the pancreatic juice was determined by neutralization titration. As a control, a physiological saline solution was administered intravenously.

[4] = test system: 3LL; assay: Test of Inhibition on Pulmonary Metastasis, 3LL; type: in vivo, C57BL/6 mouse; conditions: day 11, mean ± standard error
Protocol: 1×10^5 cells/animal of B16BL6 or 7×10^5 cells/animal of 3LL were inoculated to the tail vein of 10 to 12 6-week-old C57BL/6 male mice per group (body weight: about 18.5 g). The compound (I) (dihydrochloride monohydrate) dissolved in a physiological saline solution (J.P.) was administered to each animal at a dose of 1, 3 or 10 mg/kg orally 24 hours, 1 hour before and 1 hour after the inoculation, or intravenously immediately before the inoculation. On the 13th day from the inoculation of B16BL6 or 11th day from the inoculation of 3LL, the number of metastatic nodules in the lungs was counted using an operating microscope.

[5] = test system: platelet aggregation; assay: Test of Platelet Aggregation Inhibition (ex vivo; i.v.); set-up: species or system rat (male Wistar-Imamichi); conditions: Rattus norvegicus, iv, 0.25 h, 15 min, read-out: Platelet Aggregation Inhibitory Activity (in vivo: % inhibition); for inhibition at 0.02 mg/kg: i.v. 0.02 mg/Kg/min; for inhibition at 0.067 mg/kg: i.v. 0.067 mg/Kg/min
Protocol: As test animals, 5 male Wistar-Imamichi rats (body weight: about 270 g) that had been allowed food and water ad libitum were used per group. The test compound was dissolved in a physiological saline solution (J.P.) and continuously injected to the rats under anesthesia with pentobarbital through the femoral vein. 15 minutes later, citrated blood was taken from the heart, and platelet aggregation was determined in the same manner as in Test Example 2.

[6] = test system: 3LL-induced aggregation; assay: Test of Inhibition of Platelet Aggregation Caused by Cancer Cells (ex vivo), 3LL; type: in vivo, C57BL/6 mouse
Protocol: The compound of the invention (dihydrochloride monohydrate) dissolved in a physiological saline solution (J.P.) was intravenously or orally administered to a 7-week-old C57BL/6 male mouse (body weight: about 20 g). Three minutes after the intravenous administration or 1 hour later from the oral administration, blood was taken from the abdominal vein into a syringe containing 1/10 volume of a 3.13% aqueous solution of sodium citrate dihydrate and PRP was prepared as described before in Test Example 6. The PRP was placed in a reaction tube under the same conditions as in Test Example 6, and 5 μl of a 200 mM calcium chloride aqueous solution was added thereto. One minute later, 50 μl of a B16BL6 (5×10^4 cells/50 μl)- or a 3LL (2×10^6 cells/50 μl)-cell suspension was added to the system. In the same manner as in Test Example 6, platelet aggregation was determined.

`O=C1CN2Cc3cc(N4CCCCC4)ccc3N=C2N1` [Compound (I), 7-piperidino-1,2,3,5-tetrahydroimidazo[2,1-b]quinazolin-2-one] gave an LD50 ([1]; female Wistar rat) of 219 mg/kg, an LD50 ([1]; male Wistar rat) of 232 mg/kg and an IC50 ([2]; inducer ADP) of 3.8 µM. For the same compound, the IC50 ([2]; inducer collagen) was 0.33 µM, the “total output amount of bicarbonate ions as compared with the control” value (“total output amount … compared with the control” for short) ([3]; 300 μg/Kg) was 198% and the “bicarbonate ion concentration in pancreatic juice as compared with the control” value ([3]; 1000 μg/Kg) was 266%. For the same compound, the “total output amount … compared with the control” value ([3]; 1000 μg/Kg) was 674%, the “bicarbonate ion concentration in pancreatic juice as compared with the control” value ([3]; i.v. 100 μg/Kg) was 109% and the “total output amount … compared with the control” value ([3]; i.v. 100 μg/Kg) was 116%. For the same compound, the Amount of Bicarbonate Ion Secretion ([3]; i.v. 100 μg/kg) was 44.6 ± 9.3 µEq/h, the “Bicarbonate Ion Concentration” value ([3]; i.v. 100 μg/kg) was 44.5 ± 6.1 mEq/l and the “activity on the pancreatic juice secretion (in words)” value ([3]; i.v. 100 μg/kg) was “did not show any significant activity”. For the same compound, the “Pancreatic Juice Secretion” value ([3]; i.v. 100 μg/kg, 0-15 min) was 323 ± 81 µL, the “Pancreatic Juice Secretion” value ([3]; i.v. 100 μg/kg, 15-30 min) was 223 ± 45 µL and the “Pancreatic Juice Secretion” value ([3]; i.v. 100 μg/kg, 30-45 min) was 178 ± 31 µL. For the same compound, the “Pancreatic Juice Secretion” value ([3]; i.v. 100 μg/kg, 45-60 min) was 226 ± 48 µL, the “Pancreatic Juice Secretion, Total” value ([3]; i.v. 100 μg/kg) was 950 ± 185 µL and the “bicarbonate ion concentration in pancreatic juice as compared with the control” value ([3]; i.v. 300 μg/Kg) was 130%. The “total volume of pancreatic juice as compared with the control (100%)” value ([3]; i.v. 300 μg/Kg) was 161%, the Amount of Bicarbonate Ion Secretion ([3]; i.v. 300 μg/kg) was 65.9 ± 9.6 µEq/h and the “Bicarbonate Ion Concentration” value ([3]; i.v. 300 μg/kg) was 45.8 ± 2.1 mEq/l. The “Pancreatic Juice Secretion” value ([3]; i.v. 300 μg/kg, 0-15 min) was 521 ± 112 µL, the “Pancreatic Juice Secretion” value ([3]; i.v. 300 μg/kg, 15-30 min) was 321 ± 53 µL and the “Pancreatic Juice Secretion” value ([3]; i.v. 300 μg/kg, 30-45 min) was 291 ± 44 µL. The “Pancreatic Juice Secretion” value ([3]; i.v. 300 μg/kg, 45-60 min) was 310 ± 31 µL, the “pancreatic juice secretion as compared with the control (100%)” value (from here on “pancreatic juice secretion … (100%)”) ([3]; i.v. 300 μg/kg, after 15 minutes) was 214% and the “Pancreatic Juice Secretion, Total” value ([3]; i.v. 300 μg/kg) was 1444 ± 214 µL. For the same compound, the “total volume of pancreatic juice as compared with the control (100%)” value ([3]; i.v. 1000 μg/Kg) was 254%, the Amount of Bicarbonate Ion Secretion ([3]; i.v. 1000 μg/kg) was 224 ± 24.7 µEq/h and the “Bicarbonate Ion Concentration” value ([3]; i.v. 1000 μg/kg) was 79.8 ± 5.6 mEq/l. The “Pancreatic Juice Secretion” value ([3]; i.v. 1000 μg/kg, 0-15 min) was 1363 ± 117 µL, the “Pancreatic Juice Secretion” value ([3]; i.v. 1000 μg/kg, 15-30 min) was 573 ± 69 µL and the “Pancreatic Juice Secretion” value ([3]; i.v. 1000 μg/kg, 30-45 min) was 455 ± 100 µL. For the same compound, the “Pancreatic Juice Secretion” value ([3]; i.v. 1000 μg/kg, 45-60 min) was 414 ± 112 µL, the “pancreatic juice secretion … (100%)” value ([3]; i.v. 1000 μg/kg, after 15 minutes) was 440% and the “pancreatic juice secretion … (100%)” value ([3]; i.v. 1000 μg/kg, after 30 minutes) was 202%. The “Pancreatic Juice Secretion, Total” value ([3]; i.v. 1000 μg/kg) was 2805 ± 225 µL, the “Number of Metastatic Nodules in the Lungs” value (from here on “Number of Metastatic Nodules”) ([4]; 1 mg/kg) was 15.4 ± 2.8 and the “Number of Metastatic Nodules” value ([4]; 3 mg/kg) was 5.9 ± 1.3. The “Number of Metastatic Nodules” value ([4]; 10 mg/kg) was 4.0 ± 1.1, the inhibition at 0.02 mg/kg ([5]; inducer ADP) was 11% and the inhibition at 0.02 mg/kg ([5]; inducer collagen) was 86%. For the same compound, the inhibition at 0.067 mg/kg ([5]; inducer ADP) was 37%, the inhibition at 0.067 mg/kg ([5]; inducer collagen) was 100% and the “delay of 3LL-induced aggregation (ex vivo)” value ([6]; 10 mg/kg (i.v.)) was ≥ 150%. The “inhibition of 3LL-induced aggregation (ex vivo)” value ([6]; 30 mg/kg (i.v.)) was “completely inhibited”.
